From patent US7902373B2 (Pfizer Inc, priority 2006, dated 2011) come the findings set out here.

Structures are written as SMILES.

For this assay, the target named is human recombinant H-PGDS (Homo sapiens, UniProt O60760). The experiment in a line: Fluorescence intensity h-PGDS TBA enzyme assay. Type of assay: biochemical. Particulars: Examples up to 622 (and 3a, 3b).
human recombinant H-PGDS, sequence (O60760 whole entry): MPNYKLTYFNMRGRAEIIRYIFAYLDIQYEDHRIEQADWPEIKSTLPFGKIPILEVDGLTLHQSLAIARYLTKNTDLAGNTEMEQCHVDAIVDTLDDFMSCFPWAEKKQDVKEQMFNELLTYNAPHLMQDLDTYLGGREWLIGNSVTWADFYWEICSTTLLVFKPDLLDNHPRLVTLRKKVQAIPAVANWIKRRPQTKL

As usually defined, the IC50 is the concentration needed to halve the response being measured. Take `COc1cnc(-c2ccccn2)nc1N1CCC(NC(=O)c2ccc(-c3cccc(F)c3)nc2)CC1` [Example 35, 6-(3-Fluorophenyl)-N-(1-(5-methoxy-2-(pyridin-2-yl)pyrimidin-4-yl)piperidin-4-yl)nicotinamide]: the IC50 came to 2.95 nM. For `O=C(NC1CCN(c2ncc3c(n2)CCOC3)CC1)c1ccc(-c2cccc(F)c2)nc1` [Example 579, N-[1-(7,8-Dihydro-5H-pyrano[4,3-d]pyrimidin-2-yl)piperidin-4-yl]-6-(3-fluorophenyl)nicotinamide] the value was 1.05 nM; for `COC(=O)c1ccc2[nH]cc(CN3CCC(NC(=O)c4ccc(-c5cccc(F)c5)nc4)CC3)c2c1` [Example 311, Methyl 3-{[4-({[6-(3-fluorophenyl)pyridin-3-yl]carbonyl}amino)piperidin-1-yl]methyl}-1H-indole-5-carboxylate], 1.72 nM. Take `Cn1nccc1CN1CCC(NC(=O)c2ccc(-c3cccc(F)c3)nc2)CC1` [Example 352, 6-(3-Fluorophenyl)-N-{1-[(1-methyl-1H-pyrazol-5-yl)methyl]piperidin-4-yl}nicotinamide]: the IC50 came to 0.625 nM. The figure for `O=C(NC1CCN(Cc2nc3ccccc3n2C2CC2)CC1)c1ccc(-c2cccc(F)c2)nc1` [Example 422, N-{1-[(1-Cyclopropyl-1H-benzimidazol-2-yl)methyl]piperidin-4-yl}-6-(3-fluorophenyl)nicotinamide] is 2.53 nM; for `COc1ccc(CN2CCC(NC(=O)c3ccc(-c4cccc(F)c4)nc3)CC2)cc1F` [Example 247, N-[1-(3-Fluoro-4-methoxybenzyl)piperidin-4-yl]-6-(3-fluorophenyl)nicotinamide] it is 0.653 nM. Turning to `Cn1cc(Cl)c(CN2CCC(NC(=O)c3ccc(-c4cccc(F)c4)nc3)CC2)n1` [Example 191, N-{1-[(4-Chloro-1-methyl-1H-pyrazol-3-yl)methyl]piperidin-4-yl}-6-(3-fluorophenyl)nicotinamide], the IC50 is 0.171 nM. For the compound `CCCN(C)C(=O)c1ccc(N2CCC(NC(=O)c3ccc(-c4cccc(F)c4)nc3)CC2)nn1` [Example 82, 6-[4-({[6-(3-Fluorophenyl)pyridin-3-yl]carbonyl}amino)piperidin-1-yl]-N-methyl-N-propylpyridazine-3-carboxamide], the IC50 was determined as 1.05 nM. With `O=C(NC1CCN(Cc2c[nH]c(-c3ccccc3)n2)CC1)c1ccc(-c2cccc(F)c2)nc1` [Example 320, 6-(3-Fluorophenyl)-N-{1-[(2-phenyl-1H-imidazol-4-yl)methyl]piperidin-4-yl}nicotinamide], the IC50 amounted to 2.34 nM. On to `O=C(NC1CCN(Cc2nc3ccccc3n2CF)CC1)c1ccc(-c2cccc(F)c2)nc1` [Example 424], for which the IC50 worked out at 1.3 nM. In the case of `COc1ccc(CN2CCC(NC(=O)c3ccc(-c4cccc(F)c4)nc3)CC2)c(F)c1` [Example 324, N-[1-(2-Fluoro-4-methoxybenzyl)piperidin-4-yl]-6-(3-fluorophenyl)nicotinamide], the IC50 turned out to be 0.531 nM.

Regarding `N#Cc1ccccc1CN1CCC(NC(=O)c2ccc(-c3cccc(F)c3)nc2)CC1` [Example 213, N-[1-(2-Cyanobenzyl)piperidin-4-yl]-6-(3-fluorophenyl)nicotinamide], the IC50 was determined as 0.469 nM. Regarding `NC(=O)c1cccnc1N1CCC(NC(=O)c2ccc(-c3cccc(F)c3)nc2)CC1` [Example 64, N-{1-[3-(Aminocarbonyl)pyridin-2-yl]piperidin-4-yl}-6-(3-fluorophenyl)nicotinamide], the IC50 worked out at 0.246 nM. Turning to `COCC(C)n1nnnc1N1CCC(NC(=O)c2ccc(-c3cccc(F)c3)nc2)CC1` (stereo not shown) [Example 101, 6-(3-fluorophenyl)-N-{1-[1-(2-methoxy-1-methylethyl)-1H-tetrazol-5-yl]piperidin-4-yl}nicotinamide], the IC50 is 1.4 nM. Consider `O=C(NC1CCN(C2CCC(Oc3ccccc3)CC2)CC1)c1ccc(-c2cccc(F)c2)nc1` (stereo not shown) [Example 556, 6-(3-Fluorophenyl)-N-[1-(4-phenoxycyclohexyl)piperidin-4-yl]nicotinamide], for which the IC50 amounted to 0.364 nM. For `CCn1ccnc1CN1CCC(NC(=O)c2ccc(-c3cccc(F)c3)nc2)CC1` [Example 431, N-{1-[(1-Ethyl-1H-imidazol-2-yl)methyl]piperidin-4-yl}-6-(3-fluorophenyl)nicotinamide], the IC50 was found to be 0.822 nM. On to `COc1cccc(-c2csc(CN3CCC(NC(=O)c4ccc(-c5cccc(F)c5)nc4)CC3)n2)c1` [Example 409, 6-(3-Fluorophenyl)-N-(1-{[4-(3-methoxyphenyl)-1,3-thiazol-2-yl]methyl}piperidin-4-yl)nicotinamide], for which the IC50 was found to be 2.25 nM.

As for `COC(=O)c1ccc2c(CN3CCC(NC(=O)c4ccc(-c5cccc(F)c5)nc4)CC3)c[nH]c2c1` [Example 265, Methyl 3-{[4-({[6-(3-fluorophenyl)pyridin-3-yl]carbonyl}amino)piperidin-1-yl]methyl}-1H-indole-6-carboxylate], the IC50 worked out at 4.29 nM. Regarding `O=C(NC1CCN(c2ncccc2C(=O)NCc2ccccc2)CC1)c1ccc(-c2cccc(F)c2)nc1` [Example 152, N-Benzyl-2-[4-({[6-(3-fluorophenyl)pyridin-3-yl]carbonyl}amino)piperidin-1-yl]nicotinamide], the IC50 is 3.35 nM. `O=C(NC1CCN(Cc2ccc(=O)[nH]c2)CC1)c1ccc(-c2cccc(F)c2)nc1` [Example 378, 6-(3-Fluorophenyl)-N-{1-[(6-oxo-16-dihydropyridin-3-yl)methyl]piperidin-4-yl}nicotinamide]: the IC50 turned out to be 1.41 nM. As to `O=C(NC1CCN(c2ncnc3ccc(Cl)cc23)CC1)c1ccc(-c2cccc(F)c2)nc1` [Example 38, N-(1-(6-Chloroquinazolin-4-yl)piperidin-4-yl)-6-(3-fluorophenyl)nicotinamide], the IC50 is 1.04 nM.

In the case of `O=C(NC1CCN(CC2CC=CCC2)CC1)c1ccc(-c2cccc(F)c2)nc1` (stereo not shown) [Example 221, N-[1-(Cyclohex-3-en-1-ylmethyl)piperidin-4-yl]-6-(3-fluorophenyl)nicotinamide], the IC50 was 0.446 nM. For the compound `O=C(NC1CCN(CC2CC2)CC1)c1ccc(-c2cccc(F)c2)nc1` [Example 596, N-[1-(Cyclopropylmethyl)piperidin-4-yl]-6-(3-fluorophenyl)nicotinamide], the half-maximal inhibitory concentration (IC50) was found to be 1.93 nM. As to `COc1cc(CN2CCC(NC(=O)c3ccc(-c4cccc(F)c4)nc3)CC2)cc(Cl)c1O` [Example 257, N-[1-(3-Chloro-4-hydroxy-5-methoxybenzyl)piperidin-4-yl]-6-(3-fluorophenyl)nicotinamide], the IC50 came out at 0.58 nM. The figure for `CCc1cn2nc(N3C[C@H](NC(=O)c4ccc(-c5cccc(F)c5)nc4)[C@@H](O)C3)ccc2n1` (relative stereo) [Example 614, Trans-N-[1-(2-ethylimidazo[12-b]pyridazin-6-yl)-4-hydroxypyrrolidin-3-yl]-6-(3-fluorophenyl)nicotinamide] is 52.5 nM; for `O=C(NC1CCN(Cc2c(F)cccc2F)CC1)c1ccc(-c2cccc(F)c2)nc1` [Example 244, N-[1-(2,6-Difluorobenzyl)piperidin-4-yl]-6-(3-fluorophenyl)nicotinamide] it is 0.288 nM. In the case of `O=C(NC1CCN(c2cccnn2)CC1)c1ccc(-c2cccc(F)c2)nc1` [Example 580, 6-(3-Fluorophenyl)-N-(1-pyridazin-3-ylpiperidin-4-yl)nicotinamide], the IC50 came to 0.35 nM. For the compound `CCOC(=O)N1CCC(NC(=O)c2ccc(-c3ccccc3F)nc2)CC1` [Example 586, Ethyl 4-({[6-(2-fluorophenyl)pyridin-3-yl]carbonyl}amino)piperidine-1-carboxylate], the IC50 was 0.787 nM. Consider `O=C(NC1CCN(c2ncnc3ncccc23)CC1)c1ccc(-c2cccc(F)c2)nc1` [Example 63, 6-(3-Fluorophenyl)-N-(1-pyrido[2,3-d]pyrimidin-4-ylpiperidin-4-yl)nicotinamide], for which the IC50 was found to be 0.183 nM. The figure for `CCCC(=O)N1CCC(NC(=O)c2ccc(-c3cccc(C)c3)nc2)CC1` [Example 24, N-(1-Butyrylpiperidin-4-yl)-6-(3-methylphenyl)nicotinamide] is 2.64 nM. Take `O=C(NC1CCN(Cc2cccc(-n3cccn3)c2)CC1)c1ccc(-c2cccc(F)c2)nc1` [Example 367, 6-(3-Fluorophenyl)-N-{1-[3-(1H-pyrazol-1-yl)benzyl]piperidin-4-yl}nicotinamide]: the IC50 is 0.707 nM.

Turning to `O=C(NC1CCN(CC2CCc3nc(CC4CC4)ncc3C2)CC1)c1ccc(-c2cccc(F)c2)nc1` (stereo not shown) [Example 399, N-(1-{[2-(cyclopropylmethyl)-5,6,7,8-tetrahydroquinazolin-6-yl]methyl}piperidin-4-yl)-6-(3-fluorophenyl)nicotinamide], the IC50 was 1.02 nM. As for `COc1ccccc1C1(CN2CCC(NC(=O)c3ccc(-c4cccc(F)c4)nc3)CC2)CCOCC1` [Example 285, 6-(3-Fluorophenyl)-N-(1-{[4-(2-methoxyphenyl)tetrahydro-2H-pyran-4-yl]methyl}piperidin-4-yl)nicotinamide], the IC50 is 1.53 nM. Take `CN1CCC(NC(=O)c2ccc(-c3ccc(F)cc3)nc2)CC1` [Example 12, 6-(4-Fluorophenyl)-N-(1-methylpiperidin-4-yl)nicotinamide]: the IC50 is 694 nM. For `CCC(CO)n1cnc2c(N3CCC(NC(=O)c4ccc(-c5cccc(F)c5)nc4)CC3)ncnc21` (stereo not shown) [Example 90, 6-(3-Fluorophenyl)-N-(1-{9-[1-(hydroxymethyl)propyl]-9H-purin-6-yl}piperidin-4-yl)nicotinamide] the value was 0.305 nM. As for `CC(C)(CN1CCC(NC(=O)c2ccc(-c3cccc(F)c3)nc2)CC1)NC(=O)OC(C)(C)C` [Example 268, tert-Butyl {2-[4-({[6-(3-fluorophenyl)pyridin-3-yl]carbonyl}amino)piperidin-1-yl]-1,1-dimethylethyl}carbamate], the IC50 was 8.08 nM. Take `CC(C)(C)OC(=O)N1C[C@H](O)[C@H](NC(=O)c2ccc(-c3cccc(F)c3)nc2)C1` (relative stereo) [Example 609, cis-tert-Butyl 3-({[6-(3-fluorophenyl)pyridin-3-yl]carbonyl}amino)-4-hydroxypyrrolidine-1-carboxylate]: the IC50 was 5.43 nM.
